From US20100330116A1, “LIVE […] USE AS VACCINE” (The University of Queensland, priority 2004, published 2010)

Legend:
FD436 [1] = experiment: MIC determination of nalidixic acid and rifampicin (broth dilution, Bioscreen turbidity); settings: TSB, 37° C., 24 h
FD436 [2] = experiment: MBC determination of nalidixic acid and rifampicin (growth on SBA plates); settings: TSB, then SBA 37° C., 48 h

Row | Compound | MIC for FD436 (FD436 [1]) | MBC for FD436 (FD436 [2])
1 | CO[C@H]1/C=C/O[C@@]2(C)Oc3c(C)c(O)c4c(O)c(c(/C=N/N5CCN(C)CC5)c(O)c4c3C2=O)NC(=O)/C(C)=C\C=C\[C@H](C)[C@H](O)[C@@H](C)[C@@H](O)[C@@H](C)[C@H](OC(C)=O)[C@@H]1C [Rifampicin] | 0.0025 % (w/v) | 0.0025 % (w/v)
2 | CCn1cc(C(=O)O)c(=O)c2ccc(C)nc21 [Nalidixic acid] | 0.00125 % (w/v) | 0.00125 % (w/v)
